Data on nine compounds can be found in PMC5910394, “Mechanically interlocked functionalization of monoclonal antibodies” (Nature Communications, 2018).

Starred links: 1 amine or outer side, 2 acyl side, 3 side chain; linkers in the order of their positions; H or OH if unused. Positions of bridges follow the written chain, without caps; N, C: chain ends. Non-standard residues stand in square brackets, D forms with d. Residues, ends and D or L forms follow the SMILES beside them. X1 = [N-]=[N+]=NCCOCCOCCNC(=N)NCCC[C@H](N[*:1])C(=O)[*:2]; Dip = N[C@H](C(=O)O)C(c1ccccc1)c1ccccc1

One assay deals with memAb anti-HER2. The experiment in a line: SPR binding kinetics of meditope variants to immobilized memAb anti-HER2. Conditions: n=1.
The next assay deals with Ile83Glu memAb anti-HER2. The experiment in a line: SPR binding kinetics of meditope variants to immobilized Ile83Glu memAb anti-HER2. (In general: Surface plasmon resonance follows binding to a sensor surface in real time, without labels.)
[1] abbreviates: SPR Biacore T100, memAb on CM5 chip, HBS-EP+, 1:1 model, 25°C.

Regarding `CC(C)C[C@@H]1NC(=O)[C@H](CCCNC(=N)N)NC(=O)[C@H](CCCNC(=N)N)NC(=O)[C@H]([C@@H](C)O)NC(=O)[C@H](CO)NC(=O)[C@H](CC(C)C)NC(=O)[C@H](CC(=O)O)NC(=O)[C@H](Cc2ccccc2)NC(=O)[C@H](CCC(N)=O)NC(=O)CCCCCCNC(=O)[C@H](CCCCN)NC1=O`, the ka with memAb anti-HER2 (setting [1]) is given as 2.1 M-1s-1 x 104. Moreover, on memAb anti-HER2 (SPR, 25°C), binding was put at a Kd of 5700 nM and the kd is 0.12 s⁻¹.

Regarding `CC(C)C[C@@H]1NC(=O)[C@H](CCCNC(=N)N)NC(=O)[C@H](CCCNC(=N)N)NC(=O)[C@H]([C@@H](C)O)NC(=O)[C@H](CO)NC(=O)[C@H](CC(C)C)NC(=O)[C@H](CC(=O)O)NC(=O)[C@H](C(c2ccccc2)c2ccccc2)NC(=O)[C@H](CCC(N)=O)NC(=O)[C@@H](N)CSSC[C@@H](C(=O)O)NC(=O)[C@H](CCCCN)NC1=O`, the ka in the assay with memAb anti-HER2 (setting [1]) was 0.92 M-1s-1 x 104. Moreover, at memAb anti-HER2 (SPR, 25°C), the Kd (commonly the free concentration of one partner at which half of the binding sites on the other are occupied at equilibrium, for simple one-to-one binding) amounted to 2600 nM and the kd was found to be 0.024 s⁻¹.

Consider `CC(C)C[C@@H]1NC(=O)[C@H](CCCNC(=N)N)NC(=O)[C@H](CCCNC(=N)N)NC(=O)[C@H]([C@@H](C)O)NC(=O)[C@H](CO)NC(=O)[C@H](C(c2ccccc2)c2ccccc2)NC(=O)[C@H](CC(=O)O)NC(=O)[C@H](Cc2ccccc2)NC(=O)[C@H](CCC(N)=O)NC(=O)[C@@H](N)CSSC[C@@H](C(=O)O)NC(=O)[C@H](CCCCN)NC1=O` [CQFDA(Ph)2STRRLKC], for which the ka with memAb anti-HER2 (setting [1]) was 20 M-1s-1 x 104. On memAb anti-HER2 (SPR, 25°C), this compound yielded a Kd of 40 nM and a kd of 0.008 s⁻¹.

For the compound `CC(C)C[C@@H]1NC(=O)[C@H](CCCNC(=N)N)NC(=O)[C@H](CCCNC(=N)N)NC(=O)[C@H]([C@@H](C)O)NC(=O)[C@H](CO)NC(=O)[C@H](CC(C)C)NC(=O)[C@H](CC(=O)O)NC(=O)[C@H](Cc2ccccc2)NC(=O)[C@H](CCC(N)=O)NC(=O)CCSSC[C@@H](C(=O)O)NC(=O)[C@H](CCCCN)NC1=O` [(MPT) QFDLSTRRLKC], the ka with memAb anti-HER2 (setting [1]) is 1.8 M-1s-1 x 104. At memAb anti-HER2 (SPR, 25°C), the Kd was determined as 1000 nM and the kd came out at 0.018 s⁻¹.

Regarding `CC(C)C[C@@H]1NC(=O)[C@H](C)NC(=O)[C@H](CCCNC(=N)N)NC(=O)[C@H](CO)NC(=O)[C@H](CO)NC(=O)[C@H](CC(C)C)NC(=O)[C@H](CC(N)=O)NC(=O)[C@H](Cc2ccc(O)cc2)NC(=O)[C@H](CCC(N)=O)NC(=O)[C@@H](N)CSSC[C@@H](C(=O)O)NC(=O)[C@H](CCCCN)NC1=O`, the ka in the assay on memAb anti-HER2 (setting [1]) was 0.97 M-1s-1 x 104. On memAb anti-HER2 (SPR, 25°C), this compound registered a Kd of 3400 nM and a kd of 0.033 s⁻¹.

As for `CC(C)C[C@@H]1NC(=O)[C@H](CCCNC(=N)N)NC(=O)[C@H](CCCNC(=N)N)NC(=O)[C@H]([C@@H](C)O)NC(=O)[C@H](CO)NC(=O)[C@H](CC(C)C)NC(=O)[C@H](CC(=O)O)NC(=O)[C@H](Cc2ccc(O)cc2)NC(=O)[C@H](CCC(N)=O)NC(=O)[C@@H](N)CSSC[C@@H](C(=O)O)NC(=O)[C@H](CCCCN)NC1=O`, the ka in the assay on memAb anti-HER2 (setting [1]) is 2.8 M-1s-1 x 104. In addition, at memAb anti-HER2 (SPR, 25°C), binding was characterised by a dissociation constant (Kd) of 3900 nM and the kd was found to be 0.11 s⁻¹.

With `CC(=O)N[C@H]1CSSC[C@@H](C(=O)NCC(=O)NCC(=O)N[C@@H](CO)C(=O)N[C@@H](CCCCN)C(=O)O)NC(=O)[C@H](CCCNC(=N)N)NC(=O)[C@H](CC(C)C)NC(=O)[C@H](CCCNC(=N)N)NC(=O)[C@H](CCCNC(=N)N)NC(=O)[C@H]([C@@H](C)O)NC(=O)[C@H](CO)NC(=O)[C@H](CC(C)C)NC(=O)[C@H](CC(=O)O)NC(=O)[C@H](Cc2ccccc2)NC(=O)[C@H](CCC(N)=O)NC1=O`, the ka in the assay with memAb anti-HER2 (setting [1]) is given as 2.8 M-1s-1 x 104; with memAb anti-HER2 (SPR, 37 °C), 7.5 M-1s-1 x 104; with Ile83Glu memAb anti-HER2 (SPR, 25°C, n=1), 71 M-1s-1 x 104; in the assay on Ile83Glu memAb anti-HER2 (SPR, 37°C, n=4, mean (±SD)), 16 (±6) M-1s-1 x 104. The Kd worked out at 210 nM at memAb anti-HER2 (SPR, 25°C); 350 nM at memAb anti-HER2 (SPR, 37 °C); 0.44 nM at Ile83Glu memAb anti-HER2 (SPR, 25°C, n=1); 4 nM at Ile83Glu memAb anti-HER2 (SPR, 37°C, n=4, mean (±SD)). In addition, the kd is 0.006 s⁻¹ on memAb anti-HER2 (SPR, 25°C) and 0.026 s⁻¹ at memAb anti-HER2 (SPR, 37 °C).

As for `CC(C)C[C@@H]1NC(=O)[C@H](CCCNC(=N)N)NC(=O)[C@H](CCCNC(=N)N)NC(=O)[C@H]([C@@H](C)O)NC(=O)[C@H](CO)NC(=O)[C@H](CC(C)C)NC(=O)[C@H](CC(=O)O)NC(=O)[C@H](Cc2ccc(Br)cc2)NC(=O)[C@H](CCC(N)=O)NC(=O)[C@@H](N)CSSC[C@@H](C(=O)O)NC(=O)[C@H](CCCCN)NC1=O`, the ka with memAb anti-HER2 (setting [1]) is reported as 0.91 M-1s-1 x 104. Further, on memAb anti-HER2 (SPR, 25°C), the affinity, expressed as Kd, was 4700 nM and the kd was 0.042 s⁻¹.

With `CC(=O)N[C@H]1CSSC[C@@H](C(=O)NCC(=O)NCC(=O)N[C@@H](CO)C(=O)N[C@@H](CCCCN)C(=O)O)NC(=O)[C@H](CCCNC(=N)N)NC(=O)[C@H](CC(C)C)NC(=O)[C@H](CCCNC(=N)N)NC(=O)[C@H](CCCNC(=N)NCCOCCOCCN=[N+]=[N-])NC(=O)[C@H]([C@@H](C)O)NC(=O)[C@H](CO)NC(=O)[C@H](C(c2ccccc2)c2ccccc2)NC(=O)[C@H](CC(=O)O)NC(=O)[C@H](Cc2ccccc2)NC(=O)[C@H](CCC(N)=O)NC1=O` (Ac-CQFD[Dip]ST[X1]RLRCGGSK-OH; disulfide 1-12), binding at Ile83Glu memAb anti-HER2 (SPR sensogram (Fig. 1c E83 / Supplementary Fig. 1a), 37 °C, n = 1) was put at a Kd of 2.1 nM. In the assay with Ile83Glu memAb anti-HER2 (SPR, 37 °C), the “half-life of the interaction (τ)” value was found to be 1.38 h.
